Experimental data published in article PMC4774911, “Biochemical Screening of Five Protein Kinases from Plasmodium falciparum against 14,000 Cell-Active Compounds” (PLoS ONE, 2016).
Values joined by “and” are separate entries in the source; they are usually repeats but may differ in a detail not shown here. Equal entries are not always repeated.

Experiments:
Test in all cases: biochemical
Design in all cases: endogenous in cells; host or cells: K562 cell extract; species or system K562 (extract); replicate k of n = 2 (each experiment ID is one independent experiment; two experiment IDs per compound)
Details in all cases: read-out: KDapp
TNK1 = target: T1, TNK1 (Homo sapiens, UniProt Q13470)
T1 sequence (Q13470 1-666): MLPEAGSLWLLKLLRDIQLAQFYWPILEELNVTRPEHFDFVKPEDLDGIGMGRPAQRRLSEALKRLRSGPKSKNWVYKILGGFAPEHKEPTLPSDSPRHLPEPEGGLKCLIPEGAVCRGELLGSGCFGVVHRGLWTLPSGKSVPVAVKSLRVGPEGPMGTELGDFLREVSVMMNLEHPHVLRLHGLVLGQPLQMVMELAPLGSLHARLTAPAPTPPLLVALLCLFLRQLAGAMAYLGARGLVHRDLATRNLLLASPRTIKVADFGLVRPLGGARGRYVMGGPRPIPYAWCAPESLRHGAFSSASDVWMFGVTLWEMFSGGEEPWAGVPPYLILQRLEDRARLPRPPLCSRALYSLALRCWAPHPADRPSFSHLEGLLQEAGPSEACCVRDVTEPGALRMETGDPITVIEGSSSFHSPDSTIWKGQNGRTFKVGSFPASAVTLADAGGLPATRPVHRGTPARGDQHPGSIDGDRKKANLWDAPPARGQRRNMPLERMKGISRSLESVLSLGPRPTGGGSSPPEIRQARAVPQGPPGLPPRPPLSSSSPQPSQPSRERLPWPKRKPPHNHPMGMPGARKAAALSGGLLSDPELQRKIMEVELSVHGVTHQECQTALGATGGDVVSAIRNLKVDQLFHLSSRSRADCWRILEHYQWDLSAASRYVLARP

TGFBR1 = target: T2, TGFBR1 (Homo sapiens, UniProt P36897)
T2 sequence (P36897 1-503): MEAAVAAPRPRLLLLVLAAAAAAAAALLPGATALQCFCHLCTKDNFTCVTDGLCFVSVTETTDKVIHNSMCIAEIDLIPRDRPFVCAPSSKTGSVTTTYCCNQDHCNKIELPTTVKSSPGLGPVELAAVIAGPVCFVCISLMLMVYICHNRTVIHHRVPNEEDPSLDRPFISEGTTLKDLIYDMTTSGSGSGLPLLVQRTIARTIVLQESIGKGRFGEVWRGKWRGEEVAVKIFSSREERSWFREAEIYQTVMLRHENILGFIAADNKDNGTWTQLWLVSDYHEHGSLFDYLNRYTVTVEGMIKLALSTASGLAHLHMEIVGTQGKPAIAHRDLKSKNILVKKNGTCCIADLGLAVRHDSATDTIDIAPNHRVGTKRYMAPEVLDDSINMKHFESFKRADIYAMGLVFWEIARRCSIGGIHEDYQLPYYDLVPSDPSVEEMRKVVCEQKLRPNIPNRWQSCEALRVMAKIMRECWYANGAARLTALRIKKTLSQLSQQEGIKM

CDK6 = CDK6 (Homo sapiens, UniProt Q00534)
CDK6, sequence (Q00534 whole entry): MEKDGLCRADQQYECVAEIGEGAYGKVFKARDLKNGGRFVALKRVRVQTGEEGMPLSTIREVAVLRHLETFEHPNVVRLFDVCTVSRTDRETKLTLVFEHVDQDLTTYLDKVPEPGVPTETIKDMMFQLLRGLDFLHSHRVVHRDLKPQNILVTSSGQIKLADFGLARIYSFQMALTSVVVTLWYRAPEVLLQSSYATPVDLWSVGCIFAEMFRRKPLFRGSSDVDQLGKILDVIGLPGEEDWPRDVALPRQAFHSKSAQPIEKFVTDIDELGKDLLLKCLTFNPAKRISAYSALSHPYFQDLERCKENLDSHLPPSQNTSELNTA

PHKG2 = target: T3, PHKG2 (Homo sapiens, UniProt P15735)
T3 sequence (P15735 1-406): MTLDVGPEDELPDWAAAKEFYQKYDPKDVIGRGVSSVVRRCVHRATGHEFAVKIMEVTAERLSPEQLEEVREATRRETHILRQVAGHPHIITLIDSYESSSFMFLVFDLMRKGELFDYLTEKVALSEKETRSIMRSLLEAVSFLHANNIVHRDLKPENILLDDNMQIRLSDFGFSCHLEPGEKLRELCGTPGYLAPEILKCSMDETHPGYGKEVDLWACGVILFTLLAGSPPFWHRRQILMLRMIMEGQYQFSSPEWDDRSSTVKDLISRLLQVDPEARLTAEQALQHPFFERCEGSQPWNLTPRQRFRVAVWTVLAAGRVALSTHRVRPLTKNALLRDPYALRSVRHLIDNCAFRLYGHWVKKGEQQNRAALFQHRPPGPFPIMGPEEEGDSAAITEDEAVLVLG

TBK1 = target: T4, TBK1 (Homo sapiens, UniProt Q9UHD2)
T4 sequence (Q9UHD2 1-729): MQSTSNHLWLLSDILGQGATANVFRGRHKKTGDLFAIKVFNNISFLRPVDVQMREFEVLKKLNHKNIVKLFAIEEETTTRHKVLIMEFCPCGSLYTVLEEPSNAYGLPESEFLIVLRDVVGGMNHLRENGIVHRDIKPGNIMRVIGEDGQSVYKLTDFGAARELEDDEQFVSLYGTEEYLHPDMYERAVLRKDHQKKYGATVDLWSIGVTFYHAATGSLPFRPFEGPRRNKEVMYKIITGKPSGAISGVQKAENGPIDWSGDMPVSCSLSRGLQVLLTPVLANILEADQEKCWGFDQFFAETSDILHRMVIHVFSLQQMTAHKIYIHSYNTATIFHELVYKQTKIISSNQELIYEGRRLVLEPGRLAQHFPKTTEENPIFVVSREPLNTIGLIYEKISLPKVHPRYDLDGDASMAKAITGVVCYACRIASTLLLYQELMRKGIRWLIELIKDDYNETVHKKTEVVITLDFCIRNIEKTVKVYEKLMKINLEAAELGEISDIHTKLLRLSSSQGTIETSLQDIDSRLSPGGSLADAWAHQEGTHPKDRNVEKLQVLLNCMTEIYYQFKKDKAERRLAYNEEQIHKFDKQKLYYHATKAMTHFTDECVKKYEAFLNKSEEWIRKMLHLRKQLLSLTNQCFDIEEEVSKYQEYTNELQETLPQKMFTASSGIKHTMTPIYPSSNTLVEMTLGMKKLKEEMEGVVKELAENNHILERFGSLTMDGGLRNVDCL

CN(C)CC(O)COc1ccc(Nc2ncc([N+](=O)[O-])c(Nc3ccccc3O)n2)cc1.O=C(O)C(F)(F)F (centres unmarked) [TCMDC-141399]
Kd (TNK1): 1150 nM and 464 nM

Cl.NCC1(c2nc(-c3ccc(Cl)c(O)c3)c(-c3ccncc3)[nH]2)CCCCC1 [TCMDC-141154]
Kd (TGFBR1): 59.6 nM and 87.9 nM

CN1CCN(c2ccc(Nc3ncc(C#N)c(Nc4ccccc4C(N)=O)n3)cc2)CC1.Cl [TCMDC-134116]
Kd (CDK6): 133 nM and 150 nM
Kd (PHKG2): 2250 nM
Kd (TBK1): 229 nM and 220 nM
